Measurements published in patent US20230203055A1, “FUSED RING COMPOUND AND APPLICATION THEREOF IN MEDICINE” (Betta Pharmaceuticals Co., LTD, priority 2020, published 2023).
Read-outs that look alike come from different tables or passages of the source.

Assays:
[1] = system: MIA PaCa-2 cells; test: Detection of cell proliferation inhibition, MIA PaCa-2 (Cell-titer Glo, 96 h); assay type: cell-based; details: read-out: IC50 (nM) MIA PaCa-2
Description: MIA PaCa-2 cells were plated in a 96-well ultra-low adsorption plate at 600 cells and 160 µL/well. After overnight incubation, compound solutions with gradient concentrations were prepared, and 40 µL of DMSO solutions of the compounds to be tested were added to each well of cells respectively. Compound final concentrations were 10000, 2000, 400, 80, 16, 3.2, 0.64, 0.12, 0.025, 0 nM (all final concentrations of DMSO were 0.25%). Incubate at 37° C., 5% CO2 for 96 h. Add 50 µL of Cell-titer Glo working solution to each well, shake and mix well, incubate at room temperature for 10 min, read the Luminescence luminescence value with a multi-function microplate reader, and convert the luminescence value reading into inhibition percentage: Percent Inhibition = (Max-Reading)/(Max-Min)* 100. • “Max” is the DMSO control; • “Min” is the cell-free control.
Curve fitting was performed with Graphpad Prism software and IC50 values were obtained. See Table 1for IC50 data for the inhibition of MIA PaCa-2 cells by the compounds of the examples.

[2] = system: H358 cells; test: Detection of cell proliferation inhibition, H358 (Cell-titer Glo, 96 h); assay type: cell-based
Description: H358 cells were plated in 96-well ultra-low adsorption plates at 2000 cells and 190 µL/well. After overnight incubation, compound solutions of gradient concentrations were prepared, and 10 µL of the DMSO solution of each concentration of the compound to be tested was added to the cells in each well. Compound final concentrations were 10000, 3333.3, 1111.1, 370.4, 123.5, 41.2, 13.7, 4.6, 1.5, 0 nM (all final concentrations of DMSO were 0.25%). Incubate at 37° C., 5% CO2 for 96 h. Add 50 µL of Cell-titer Glo working solution to each well, incubate at room temperature for 10 min after shaking and mixing, read the Luminescence luminescence value with a multi-function microplate reader, and convert the luminescence value reading into the inhibition percentage:
Percent Inhibition = (Max-Reading)/(Max-Min)* 100. • “Max” is the DMSO control, • “Min” is the cell-free control.
Curve fitting was performed with Graphpad Prism software and IC50 values were obtained. See Table 1 for IC50 data on H358 cell inhibition by example compounds.

[3] = Homo sapiens, NCI-H358, read-out: IC50 (nM) H358

| SMILES | IC50 ([1]; Homo sapiens) | IC50 [2, 3] | IC50 [1] | IC50 ([2]; read-out: IC50 (nM) H358) |
| --- | --- | --- | --- | --- |
| C=CC(=O)N1CCN(c2nc(=O)n(-c3c(C)ccnc3C(C)C)c3nc4c(cc23)OCc2cccc(O)c2-4)[C@@H](C)C1 [Example 37, (S)-8-(4-Acryloyl-2-Methylpiperazin-1-yl)-1-Hydroxy-11-(2-Isopropyl-4-Methylpyridine-3-yl)-5 H-Isochromene [3’,4’:5,6] Pyrido [2,3-d] Pyrimidin 10(11H)-One] | 1340 nM | 2490 nM | – | – |
| C=CC(=O)N1CCN(c2nc(=O)n(-c3c(C)ccnc3C(C)C)c3c4c(c(Cl)cc23)-c2cccnc2CO4)[C@@H](C)C1 [Example 20, (S)-7-(4-Acryloyl-2-Methylpiperazin-1-yl)-5-Chloro-10-(2-Isopropyl-4-Methylpyridine-3-yl)-10H Pyridin[3’,2’:4,5] Pyrano[3,2-h]Quinazolin-9(12H)-One] | 64.2 nM | 62.6 nM | – | – |
| C=CC(=O)N1CCN(c2nc(=O)n(-c3c(C)ccnc3C(C)C)c3c4c(c(F)cc23)-c2c(Cl)cccc2CO4)[C@@H](C)C1 [Example 5, (S)-1-(Acryloyl-2-Methylpiperazin-1-yl)-10-Chloro-11-Fluoro-4-(2-Isopropyl-4-Methylpyridin-3-yl)-4H-Isochromene[4,3-h] Quinazolin-3(6H)-One] | – | – | < 50 nM | 115 nM |
| C=CC(=O)N1CCN(c2nc(=O)n(-c3c(C(C)C)ncc4c3CCC4)c3c4c(c(Cl)cc23)-c2c(ccc(F)c2F)CO4)[C@@H](C)C1 [Example 27] | 66 nM | 110 nM | – | – |
| C=CC(=O)N1CCN(c2nc(=O)n(-c3c(C)ccnc3C(C)C)c3c4c(c(Cl)cc23)-c2c(ccc(F)c2F)CO4)[C@@H](C)C1 [Example 18, (S)-1-(4-Acryloyl-2-Methylpiperazin-1-yl)-11-Chloro-9,10-Difluoro-4-(2-Isopropyl-4-Methylpyridin-3-yl)-4H-Isochromene[4,3-h] Quinazolin-3(6H)-One] | < 50 nM | < 50 nM | – | – |
| C=CC(=O)N1CCN(c2nc(=O)n(-c3c(C)ccnc3C(C)C)c3c(F)c4c(cc23)OCc2ccc3ccccc3c2-4)[C@@H](C)C1 [Example 22, (S)-10-(4-Acryloyl-2-Methylpiperazin-1-yl)-14-Fluoro-13-(2-Isopropyl-4-Methylpyridine-3-yl)-7H-Benzo[5,6] Isochromene[3,4-g]Quinazolin-12(13H)-One] | 2500 nM | 3740 nM | – | – |
| C=CC(=O)N1CCN(c2nc(=O)n(-c3c(C)ccnc3C(C)C)c3c4c(c(C(F)(F)F)cc23)-c2c(F)cccc2CO4)[C@@H](C)C1 [Example 16, (S)-1-(4-Acryloyl-2-Methylpiperazin-1-yl)-10-Fluoro-4-(2-Isopropyl-4-Methylpyridine-3-yl)-11-(Trifluoromethyl)-4H-Isochromene[4,3-h] Quinazolin-3(6H)-One] | – | – | < 50 nM | 80.6 nM |
| C=CC(=O)N1CCN(c2nc(=O)n(-c3c(C)ccnc3C(C)C)c3c(F)c4c(cc23)OCc2cccc(F)c2-4)CC1CC#N (centres unmarked) [Example 26, 2-(1-Acryloyl-4-(1,12-Difluoro-11-(2-Isopropyl-4-Methylpyridin-3-yl)-10-Oxo-10,11-Dihydro-5H -Isochromene[3,4-g]Quinazolin-8-yl)Piperazin-2-yl)Acetonitrile] | 546 nM | 349 nM | – | – |
| C=CC(=O)N1CCN(c2nc(=O)n(-c3c(C)ccnc3C(C)C)c3c4c(c(Cl)cc23)-c2c(F)cccc2CCO4)[C@@H](C)C1 [Example 19, 10-((S)-4-Acryloyl-2-Methylpiperazin-1-yl)-8-Chloro-7-Fluoro-13-(2-Isopropyl-4-Methylpyridin-3-yl)-2,3-Dihydrobenzo[4,5]oxa[3,2-h]Quinazo1in-12(13H)-One] | < 50 nM | < 50 nM | – | – |
| C=CC(=O)N1CCN(c2nc(=O)n(-c3c(C)ccnc3C(C)C)c3c4c(c(Cl)cc23)-c2c(F)ccc(O)c2CO4)[C@@H](C)C1 [Example 28] | 85 nM | 95 nM | – | – |
| C=CC(=O)N1CCN(c2nc(=O)n(-c3c(C)ccnc3C(C)C)c3c(F)c4c(cc23)OCCc2ccccc2-4)[C@@H](C)C1 [Example 8] | 85 nM | 155 nM | – | – |
| C=CC(=O)N1CCN(c2nc(=O)n(-c3c(C)ccnc3C(C)C)c3c(F)c4c(cc23)OCc2cccc(Cl)c2-4)[C@@H](C)C1 [Example 6, (S)-8-(Acryloyl-2-Methylpiperazin-1-yl)-1-Chloro-12-Fluoro-11-(2-Isopropyl-4-Methylpyridin-3-yl)-5 H-Isochromene[3,4-g] Quinazolin-10(11 H)-one] | – | – | 272 nM | 496 nM |
| C=CC(=O)N1CCN(c2nc(=O)n(-c3c(C4CC4)ncnc3C3CC3)c3c4c(c(Cl)cc23)-c2c(F)cccc2CCO4)[C@@H](C)C1 [Example 32, 10-((S)-4-Acryloyl-2-Methylpiperazin-1-yl)-8-Chloro-13-(4,6-Dicyclopropylpyrimidine-5-Base)-7 -Fluoro-2,3-Dihydrobenzo[4,5] Oxa[3,2-h]Quinazolin-12(13H)-One] | < 50 nM | < 50 nM | – | – |
